Where “and” joins values, the source holds several entries; their conditions need not be identical. Equal entries are not always repeated. Where two headings read alike, the source gives them in different places.
Tests used:
[1] = test system: ciliary muscle-disinserted monkey eyes; assay: Outflow facility in ciliary muscle-disinserted eyes; format: in vivo, cynomolgus and rhesus monkeys
[2] = test system: bovine aortic endothelial cells; assay: Actin filaments and C-C adhesions in cultured endothelial cells; format: cell-based
living monkey eyes [3] = assay: Intraocular pressure by Goldmann applanation tonometry; format: in vivo, cynomolgus monkeys (Macaca fascicularis); conditions: for time to IOP reduction after administration: living monkeys, topical
Experimental: The intraocular pressure (IOP) was determined with a “minified” Goldmann applanation tonometer (Kaufman and Davis, Arch. Ophthalmol., 98:542-546[1980]), using “Half and Half®” creamer solution (Borden) as the tear film indicator (Croft et al., in Lakshminarayanan (ed.), Basic and Clinical Applications of Vision Science, Dordtecht, Kluwer, [1997], pp. 213-216), with the monkey lying prone in a head holder and the eyes positioned 4 to 8 cm above the heart. All monkeys were examined by slit-lamp before the first IOP measurement in each protocol. For each eye, two or three IOP measurements were averaged as a baseline.
After baseline IOP was measured, 21 or 42 μg LAT-A or 4 μg LAT-B were administered to the central cornea of supine monkeys in one eye and the vehicle to the opposite eye. Blinking was prevented with lid speculums during and for 5 min. after drug administration (taking care to avoid touching the globe), to maximize drug penetration into the AC and minimize systemic absorption. Following drug administration, the speculums were gently removed and the monkeys were kept in the supine position for another 15 min to further facilitate penetration of drug/vehicle solution into the AC. For LAT-A, IOP was then measured every hr for 7 to 9 hr beginning 1, 6, or 15 hr after the 21 gg dose, or beginning 1 or 6 hr after the 42 μg dose, and again at 24 hr. Each protocol included two groups of monkeys. Group one (6 monkeys) underwent IOP measurement from 1-9 hr and again at 24 hr after the drug; group two (6 monkeys) were measured from 6-13 hr for both doses and again from 15 hr-21 hr on a separate occasion for the 21 μg dose. For both doses, one monkey in group one was used again in group two; therefore its two readings measured at baseline or the period 6-9 hr after the drug on the two different occasions was averaged for data analysis. Thus, “n” for baseline and the period 6-9 hr post-drug is 11 rather than 12. During intervals between the post-drug reading at 9 hr and that at 24 hr for group one or between the drug administration and the first post-drug reading at 6 hr for group two, the animals were returned to the Animal Care Unit for recovery. For LAT-B, IOP was measured every hr for 6 hr beginning 1 hr after the 4 μg dose, and again at 24 hr. The animals were returned to the Animal Care Unit for recovery between the measurements at 6 hr and 24 hr. Anterior segments were examined by slit-lamp at 3, 6, 10 or 24 hr after LAT-A, or at 1, 3, 6 or 24 hr after LAT-B.

living monkey eyes [4] = assay: Blood-aqueous barrier permeability to systemic fluorescein; format: in vivo, cynomolgus monkeys (Macaca fascicularis); conditions: 42 μg LAT-A topical
Experimental: Topical LAT-A (42 μg) was given to one eye and vehicle to the opposite eye as described above, 1 hr prior to intravenous injection of fluorescein Na in the saphenous vein (10 mg/kg in 500-600 μl) followed by a 4 ml saline flush. The concentration of fluorescein ([fluorescein]) in the cornea and AC was determined by fluorophotometry 15, 30, 45, 60, 90, 120, 180 and 240 min after fluorescein injection.

living monkey eye [5] = format: in vivo, cynomolgus monkeys (Macaca fascicularis); conditions: for (LAT-B/BL)/(Veh/BL) / Facility LAT-B/Vehicle / Facility, LAT-B eye: 2 hr wait
cornea = assay: Corneal thickness by ultrasonic pachymetry; format: in vivo, cynomolgus monkeys (Macaca fascicularis)
Experimental: Corneal thickness was measured using a DGH-1000 ultrasonic pachymeter (DGH Technology). All eyes were examined by biomicroscopy prior to baseline measurements. Monkeys were placed supine in head holders. The central cornea was measured once and the peripheral cornea was measured four times midway between the center and the limbus on the vertical and horizontal axes. For each point in each eye, two baseline thickness measurements were averaged, and 4.0 μg LAT-B or 25% DMSO was administered to opposite eyes in the LAT-B protocol, or 25% DMSO or Bárány's administered to opposite eyes in the DMSO control protocol. The eyelids were held open manually during and for 5 min. after drug or vehicle administration. Corneal thickness was measured every 30-min. for 6 hr and again at 24 hr.

living monkey eye [6] = conditions: living monkeys; cited from earlier work
[7] = LAT-B 0.8 μg topical, 0-30 min, n=5
[8] = LAT-B 0.8 μg topical, 30-60 min, n=5
[9] = LAT-B 0.8 μg topical, 60-90 min, n=5
[10] = LAT-B 4.0 μg topical, 0-30 min, n=5
[11] = LAT-B 4.0 μg topical, 30-60 min, n=5
[12] = LAT-B 4.0 μg topical, 60-90 min, n=5

## C/C1=C/C(=O)O[C@@H]2C[C@@H](CC[C@H](C)/C=C\C=C\CC1)O[C@@](O)([C@@H]1CSC(=O)N1)C2 [LAT-A]
[1]; Lat-A 5.0 μM
  facility increase, control (non-disinserted) eyes: 328±35%
[1]; Lat-A 5.0 μM OU, n=9
  Facility PRx, CM Dis eye: 0.65 ± 0.23 μl/min/mmHg
  Facility PRx, CM Dis/Cont: 0.43 ± 0.15
  Facility PRx, Cont (non-disinserted, drug-treated) eye: 1.51 ± 0.30 μl/min/mmHg
  PRx/BL, CM Dis eye: 4.53 ± 1.29
  PRx/BL, CM Dis/Cont: 1.06 ± 0.27
  PRx/BL, Cont (non-disinserted, drug-treated) eye: 4.28 ± 0.35
[1]; Lat-A 5.0 μM, n=9
  facility increase, ciliary muscle-disinserted eyes: 353±129%
[2]; concentrations greater than 0.5 μM, 1 hour of exposure
  effects on actin filaments and C-C adhesions: unequivocal effects
[2]; lower concentrations
  effects on actin filaments and C-C adhesions: more subtle slower onset effects
Living monkey eyes [3]; 21 μg LAT-A topical
  period of lowered IOP after drug administration: 5 to 10 h
Living monkey eyes [3]; 21 μg LAT-A topical, at 8 hr, n=11
  maximal IOP decrease below baseline: 3.48±1.29 mmHg
Living monkey eyes [3]; 42 μg LAT-A topical
  period of lowered IOP after drug administration: 6 to 13 h
Living monkey eyes [3]; 42 μg LAT-A topical, at 9 hr, n=11
  maximal IOP reduction below baseline: 4.60±1.61 mmHg
Living monkey eyes [3]
  time to IOP reduction after administration: 6 h
Living monkey eyes [4]; 15 min after i.v. fluorescein (1.25 hr after LAT-A)
  [fluorescein]cornea, LAT-A-treated vs vehicle-treated eyes: ~10 times
Living monkey eyes [4]; 240 min after i.v. fluorescein
  [fluorescein]cornea, LAT-A-treated vs vehicle-treated eyes: ~1.5 times
Living monkey eyes [4]; 240 min after i.v. fluorescein, n=4
  [Fluorescein]AC higher in LAT-A eyes than in vehicle-treated eyes: 24±3%

## C/C1=C/C(=O)O[C@@H]2C[C@@H](CC[C@H](C)/C=C\CC1)O[C@@](O)([C@@H]1CSC(=O)N1)C2 [LAT-B]
Living monkey eye [5]; 2 hr after LAT-B 4.0 μg topical, n=5
  initial post-drug facility increase over final baseline value: 173±73%
Living monkey eye [5]; LAT-B 0.8 μg Top, n=5
  PRxf (final post-drug) facility, LAT-B eye: 1.54 ± 0.33 μl min^−1 mmHg^−1
  PRxf facility, LAT-B/Veh: 2.82 ± 1.22
  PRxf/BLf, LAT-B eye: 3.78 ± 0.70
  PRxf/BLf, LAT-B/Veh: 2.12 ± 0.64
  PRxf/PRxi, LAT-B eye: 3.41 ± 0.73
  PRxf/PRxi, LAT-B/Veh: 1.50 ± 0.28
  PRxi (first post-drug) facility, LAT-B eye: 0.47 ± 0.08 μl min^−1 mmHg^−1
  PRxi facility, LAT-B/Veh: 1.65 ± 0.38
  PRxi/BLf, LAT-B eye: 1.16 ± 0.11
  PRxi/BLf, LAT-B/Veh: 1.36 ± 0.16
Living monkey eye [5]; [7]
  (LAT-B/BL)/(Veh/BL): 1.84
  Facility LAT-B/Vehicle: 2.30
  Facility, LAT-B eye: 0.80 μl min^−1 mmHg^−1
Living monkey eye [5]; [8]
  (LAT-B/BL)/(Veh/BL): 2.59
  Facility LAT-B/Vehicle: 3.37
  Facility, LAT-B eye: 1.35 μl min^−1 mmHg^−1
Living monkey eye [5]; [9]
  (LAT-B/BL)/(Veh/BL): 2.37
  Facility LAT-B/Vehicle: 3.14
  Facility, LAT-B eye: 1.50 μl min^−1 mmHg^−1
Living monkey eye [5]; LAT-B 0.8 μg topical, n=5, p=NS
  facility increase, averaged over 90 min: 123±67%
Living monkey eye [5]; LAT-B 4.0 μg Top, n=5
  PRxf (final post-drug) facility, LAT-B eye: 2.03 ± 0.31 μl min^−1 mmHg^−1
  PRxf facility, LAT-B/Veh: 3.92 ± 0.58^∥
  PRxf/BLf, LAT-B eye: 6.19 ± 0.48
  PRxf/BLf, LAT-B/Veh: 3.69 ± 0.55^∥
  PRxf/PRxi, LAT-B eye: 3.16 ± 1.08
  PRxf/PRxi, LAT-B/Veh: 1.80 ± 0.53
  PRxi (first post-drug) facility, LAT-B eye: 0.98 ± 0.27 μl min^−1 mmHg^−1
  PRxi facility, LAT-B/Veh: 3.19 ± 1.16
  PRxi/BLf, LAT-B eye: 3.03 ± 0.94
  PRxi/BLf, LAT-B/Veh: 2.73 ± 0.73
Living monkey eye [5]; [10]
  (LAT-B/BL)/(Veh/BL): 3.68
  Facility LAT-B/Vehicle: 4.49
  Facility, LAT-B eye: 1.64 μl min^−1 mmHg^−1
Living monkey eye [5]; [11]
  (LAT-B/BL)/(Veh/BL): 4.03
  Facility LAT-B/Vehicle: 4.74
  Facility, LAT-B eye: 2.19 μl min^−1 mmHg^−1
Living monkey eye [5]; [12]
  (LAT-B/BL)/(Veh/BL): 3.68
  Facility LAT-B/Vehicle: 4.22
  Facility, LAT-B eye: 2.11 μl min^−1 mmHg^−1
Living monkey eye [5]; LAT-B 4.0 μg topical, n=5
  facility increase, averaged over 90 min: 272±45%
Living monkey eyes [3]; 4 μg LAT-B topical, 6 hr, n=8
  maximal IOP reduction, adjusted for baseline and contralateral control eyes: 3.1±1.2 mmHg
Living monkey eyes [3]; 4 μg LAT-B topical, at 6 hr (from 17 mmHg)
  IOP: 13.5 mmHg
Living monkey eyes [3]; 4 μg LAT-B topical, within 1 hr (from 17 mmHg)
  IOP: 15 mmHg
Living monkey eyes [3]
  time to IOP reduction after administration: ≤ 1 h
cornea; 4.0 μg LAT-B topical, 3.5 hr, n=8
  central corneal thickness increase vs contralateral control eyes (maximum): ~47 μm and 47±17 μm
cornea; 4.0 μg LAT-B topical, 24 hr
  central and peripheral corneal thickness: returned to baseline
cornea; LAT-B, hour 3.5 (maximal change)
  central cornea thicker compared to normal monkey cornea: ~10%
Living monkey eye [6]
  potency relative to LAT-A (outflow facility): 10 times
